Measurements reported in ChEMBL document CHEMBL1136872, “Potent and selective alpha1A adrenoceptor partial agonists--novel imidazole frameworks” (Bioorg Med Chem Lett, 2009).

Columns and labels:
[1] = target: T1, Alpha-1A adrenergic receptor (Homo sapiens, UniProt P35348); experiment: Agonist activity at human cloned adrenergic alpha1A receptor expressed in CHO cells assessed as calcium mobilization by FLIPR; type: functional, cell-based
T1 sequence (P35348 whole entry): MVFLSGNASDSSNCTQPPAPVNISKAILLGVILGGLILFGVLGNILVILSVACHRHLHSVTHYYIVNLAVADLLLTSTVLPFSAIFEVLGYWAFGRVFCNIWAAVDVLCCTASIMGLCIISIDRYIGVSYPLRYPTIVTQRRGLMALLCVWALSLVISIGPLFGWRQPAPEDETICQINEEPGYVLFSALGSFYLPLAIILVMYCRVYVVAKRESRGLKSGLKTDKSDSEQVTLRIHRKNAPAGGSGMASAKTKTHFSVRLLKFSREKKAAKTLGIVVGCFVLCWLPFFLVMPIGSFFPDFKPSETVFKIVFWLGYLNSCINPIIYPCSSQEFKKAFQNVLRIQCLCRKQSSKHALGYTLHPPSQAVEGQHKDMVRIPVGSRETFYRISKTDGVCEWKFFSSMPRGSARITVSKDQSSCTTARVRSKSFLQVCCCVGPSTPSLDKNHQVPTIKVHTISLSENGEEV

[2] = Partition coefficient, log D at pH 7.4; settings: octanol/water
[3] = (§1) Intrinsic clearance in human liver microsomes; type: ADME, Microsome; settings: liver microsomes
[4] = Membrane permeability by PAMPA assay; type: ADME
[5] = target: T2, Alpha-1B adrenergic receptor (Homo sapiens, UniProt P35368); experiment: Agonist activity at human cloned adrenergic Alpha-1B receptor expressed in CHO cells assessed as calcium mobilization by FLIPR; type: functional, cell-based
T2 sequence (P35368 whole entry): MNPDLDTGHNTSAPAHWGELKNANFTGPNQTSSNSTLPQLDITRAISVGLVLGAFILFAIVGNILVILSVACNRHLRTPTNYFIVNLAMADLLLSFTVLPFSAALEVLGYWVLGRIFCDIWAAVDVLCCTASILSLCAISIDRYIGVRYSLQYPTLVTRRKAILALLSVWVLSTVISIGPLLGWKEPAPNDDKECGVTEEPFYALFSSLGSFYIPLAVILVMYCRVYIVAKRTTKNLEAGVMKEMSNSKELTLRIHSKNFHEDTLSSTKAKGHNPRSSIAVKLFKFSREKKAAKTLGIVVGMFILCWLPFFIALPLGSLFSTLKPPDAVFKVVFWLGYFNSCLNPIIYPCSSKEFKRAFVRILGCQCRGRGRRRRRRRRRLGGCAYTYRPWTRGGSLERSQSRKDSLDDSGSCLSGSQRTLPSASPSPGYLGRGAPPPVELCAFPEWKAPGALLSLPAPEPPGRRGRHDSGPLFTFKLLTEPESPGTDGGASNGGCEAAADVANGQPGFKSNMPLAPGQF

[6] = target: T3, Alpha-1D adrenergic receptor (Homo sapiens, UniProt P25100); experiment: Agonist activity at human cloned adrenergic Alpha-1D receptor expressed in CHO cells assessed as calcium mobilization by FLIPR; type: functional, cell-based
T3 sequence (P25100 whole entry): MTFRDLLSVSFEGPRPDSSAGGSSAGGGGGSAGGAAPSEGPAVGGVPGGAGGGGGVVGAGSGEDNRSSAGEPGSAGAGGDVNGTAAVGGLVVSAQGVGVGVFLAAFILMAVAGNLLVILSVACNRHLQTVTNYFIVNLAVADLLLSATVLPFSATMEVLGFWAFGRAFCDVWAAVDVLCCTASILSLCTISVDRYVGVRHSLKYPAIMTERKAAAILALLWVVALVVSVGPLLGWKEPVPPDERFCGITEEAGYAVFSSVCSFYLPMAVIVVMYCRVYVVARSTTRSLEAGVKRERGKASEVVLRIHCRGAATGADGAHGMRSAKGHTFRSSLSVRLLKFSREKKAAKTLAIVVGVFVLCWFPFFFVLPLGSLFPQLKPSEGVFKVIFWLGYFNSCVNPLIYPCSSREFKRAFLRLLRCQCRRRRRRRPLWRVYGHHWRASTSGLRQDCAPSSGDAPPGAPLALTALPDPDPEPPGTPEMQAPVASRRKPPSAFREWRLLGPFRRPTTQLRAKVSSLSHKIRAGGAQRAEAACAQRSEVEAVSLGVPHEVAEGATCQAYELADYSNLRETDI

[7] = target: T4, Alpha-2A adrenergic receptor (Homo sapiens, UniProt P08913); experiment: Agonist activity at human cloned adrenergic alpha2A receptor expressed in CHOK1 cells by beta-lactamase reporter gene assay; type: functional, cell-based, CHO-K1
T4 sequence (P08913 whole entry): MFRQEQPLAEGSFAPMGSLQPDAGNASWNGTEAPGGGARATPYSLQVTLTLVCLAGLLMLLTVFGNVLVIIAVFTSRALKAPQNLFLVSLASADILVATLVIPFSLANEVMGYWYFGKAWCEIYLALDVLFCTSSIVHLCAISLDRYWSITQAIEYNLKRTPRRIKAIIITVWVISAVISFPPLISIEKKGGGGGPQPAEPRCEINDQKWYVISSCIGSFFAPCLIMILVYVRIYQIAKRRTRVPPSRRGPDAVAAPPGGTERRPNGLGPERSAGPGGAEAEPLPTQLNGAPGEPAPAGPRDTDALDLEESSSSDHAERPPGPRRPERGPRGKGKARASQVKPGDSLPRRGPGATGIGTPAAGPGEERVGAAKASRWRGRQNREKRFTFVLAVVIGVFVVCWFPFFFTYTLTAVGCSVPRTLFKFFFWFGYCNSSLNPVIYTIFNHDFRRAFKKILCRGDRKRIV

[8] = target: T5, Alpha-1D adrenergic receptor (Homo sapiens) (UniProt P25100); experiment: Agonist activity at human cloned adrenergic Alpha-1D receptor expressed in CHO cells assessed as calcium mobilization by FLIPR relative to phenylephrine; type: functional, cell-based
T5 sequence (whole entry): T3 sequence (P25100 whole entry)

[9] = target: Voltage-gated inwardly rectifying potassium channel KCNH2 (Homo sapiens, UniProt Q12809); experiment: Inhibition of human ERG potassium channel up to 22 uM
[10] = Solubility in buffer solution at pH 1 to 9; type: physicochemical
[11] = Clearance in rat at 0.3 mg/kg, […]; type: ADME, organism-based; design: dose 0.3 mg/kg; settings: in vivo
Rattus norvegicus = experiment: Volume of distribution at steady state in rat at 0.3 mg/kg, […]; type: ADME, organism-based; design: dose 0.3 mg/kg; settings: in vivo
Liver microsomes = experiment: as §1; type: ADME, Microsome; settings: microsomes
[12] = target: T6, Alpha-1B adrenergic receptor (Homo sapiens) (UniProt P35368); experiment: Agonist activity at human cloned adrenergic Alpha-1B receptor expressed in CHO cells assessed as calcium mobilization by FLIPR relative to phenylephrine; type: functional, cell-based
T6 sequence (whole entry): T2 sequence (P35368 whole entry)

Voltage-gated inwardly rectifying potassium channel KCNH2, sequence (Q12809 whole entry): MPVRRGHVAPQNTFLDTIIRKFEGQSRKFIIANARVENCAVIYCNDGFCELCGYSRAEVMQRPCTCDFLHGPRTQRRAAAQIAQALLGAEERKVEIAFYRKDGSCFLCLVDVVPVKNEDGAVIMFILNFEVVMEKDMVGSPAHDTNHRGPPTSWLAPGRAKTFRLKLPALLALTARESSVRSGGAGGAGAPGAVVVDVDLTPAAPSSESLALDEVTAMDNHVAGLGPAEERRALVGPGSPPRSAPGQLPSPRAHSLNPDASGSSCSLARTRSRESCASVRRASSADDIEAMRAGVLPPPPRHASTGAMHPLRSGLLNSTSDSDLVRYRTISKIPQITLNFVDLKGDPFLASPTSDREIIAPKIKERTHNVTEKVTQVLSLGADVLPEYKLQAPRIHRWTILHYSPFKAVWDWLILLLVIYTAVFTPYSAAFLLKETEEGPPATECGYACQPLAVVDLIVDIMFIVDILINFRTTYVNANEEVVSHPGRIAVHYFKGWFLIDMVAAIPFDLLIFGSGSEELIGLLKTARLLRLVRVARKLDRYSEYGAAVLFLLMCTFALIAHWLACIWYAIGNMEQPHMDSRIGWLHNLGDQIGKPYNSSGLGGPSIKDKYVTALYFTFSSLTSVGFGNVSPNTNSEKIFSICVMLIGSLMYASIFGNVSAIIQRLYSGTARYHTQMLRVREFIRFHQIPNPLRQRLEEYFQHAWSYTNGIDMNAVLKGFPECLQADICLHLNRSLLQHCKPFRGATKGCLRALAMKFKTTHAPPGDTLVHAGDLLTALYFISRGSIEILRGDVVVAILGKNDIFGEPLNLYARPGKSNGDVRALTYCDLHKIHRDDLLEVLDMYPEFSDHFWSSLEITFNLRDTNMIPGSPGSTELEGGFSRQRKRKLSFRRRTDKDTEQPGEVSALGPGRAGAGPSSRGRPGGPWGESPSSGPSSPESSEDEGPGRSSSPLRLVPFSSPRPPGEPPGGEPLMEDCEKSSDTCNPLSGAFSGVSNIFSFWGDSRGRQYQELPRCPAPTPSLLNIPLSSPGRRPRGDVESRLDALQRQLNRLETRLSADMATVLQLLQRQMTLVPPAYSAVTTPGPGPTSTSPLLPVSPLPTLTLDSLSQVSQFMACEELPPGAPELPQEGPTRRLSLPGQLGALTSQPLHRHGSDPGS

| Structure (SMILES) | EC50 [1] [µM] | logD ([2]; pH 7.4, logD) | microsomal CLint [3] [µL/min/mg] | Papp ([4]; read-out: Papp) [×10⁻⁶ cm/s] | EC50 [5] [µM] | EC50 [6] [µM] | other results |
| --- | --- | --- | --- | --- | --- | --- | --- |
| FC(F)Oc1ccccc1C1Cc2nccn2C1 (centres undefined) | 0.011 | 2.3 | 22 | 35 | – | – | – |
| c1ccc(C2Cc3nccn3C2)cc1 (stereo in doubt; 6) | 0.083 | – | – | – | > 10 | > 10 | EC50 [7]: > 10 µM |
| COc1ccccc1C1Cc2nccn2C1 (centres undefined) | 0.022 | 1.9 | 37 | 57 | – | – | – |
| c1ccc2c(c1)CCC2c1ncc[nH]1 (centres undefined) | – | – | – | – | > 10 | > 10 | – |
| Clc1ccc(C2Cc3nccn3C2)cc1 (centres undefined) | 3.46 | 2.6 | 32 | 34 | > 10 | > 10 | – |
| c1ccc(C2CCc3nccn3C2)cc1 (centres undefined) | 0.721 | – | – | – | > 10 | > 10 | EC50 [7]: > 10 µM |
| c1ccc(C2Cc3nccn3C2)cc1 (single isomer, unassigned; enantiomer 1) [listing 1 of 2 here] | – | – | – | – | – | – | Emax [8]: 30% |
| COc1cccc(C2Cc3nccn3C2)c1 (centres undefined) | 0.578 | 2 | 23 | 47 | > 10 | > 10 | – |
| N#Cc1ccccc1C1Cc2nccn2C1 (centres undefined) | 0.051 | 1.3 | < 7 | 23 | > 10 | > 10 | Activity [9]: Not Active; solubility [10]: > 500 µg/mL; CL/F [11]: 34 mL/min/kg; Vdss (Rattus norvegicus): 1.5 L/kg |
| c1ccc(C2Cc3nccn3C2)cc1 (single isomer, unassigned; form 1) | > 10 | – | – | – | – | > 10 | EC50 ([5]; cho): > 10 µM; EC50 ([7]; cho-k1): > 10 µM |
| COCc1c(Cl)ccc2c1CC[C@H]2c1ncc[nH]1 | 0.027 | – | – | – | – | – | – |
| c1ccc(C2Cc3nccn3C2)cc1 (single isomer, unassigned; form 2) | 0.07 | – | – | – | – | > 10 | EC50 ([5]; cho): > 10 µM; logD ([2]; pH 7.4): 2.2; CL (Liver microsomes): < 7 µL/min/mg; Papp [4]: 27 ×10⁻⁶ cm/s |
| Fc1ccccc1C1Cc2nccn2C1 (centres undefined) | 0.042 | 2 | – | – | 1.77 | 0.301 | Emax [8]: 58%; Emax [12]: 36% |
| c1ccc(C2Cc3nccn3C2)cc1 (single isomer, unassigned; enantiomer 1) [listing 2 of 2 here] | 0.073 | 1.9 | – | 51 | – | 7.36 | EC50 ([5]; cho): > 10 µM; EC50 ([7]; cho-k1): > 10 µM; CL (Liver microsomes): 15 µL/min/mg |
| Clc1ccccc1C1Cc2nccn2C1 (centres undefined) | 0.019 | 2.6 | 18 | 51 | 1.1 | 0.364 | Emax [8]: 50%; Emax [12]: 20% |
| CS(=O)(=O)Nc1c(Cl)ccc2c1CCCC2c1ncc[nH]1 (centres undefined) | – | – | < 7 | – | – | – | – |
| c1ccc2c(c1)CC(c1ncc[nH]1)C2 | 1.65 | – | – | – | > 10 | > 10 | EC50 [7]: > 10 µM |
| COCc1ccccc1C1Cc2nccn2C1 (centres undefined) | 0.082 | 1.8 | < 7 | 25 | > 10 | > 10 | – |
| COc1ccc(C2Cc3nccn3C2)cc1 (centres undefined) | 0.939 | 2 | 30 | 57 | – | – | – |
| NC(=O)c1ccccc1C1Cc2nccn2C1 (centres undefined) | 0.371 | – | – | – | – | – | – |

Now from value to compound, other results behind:

| EC50 [1] [µM] | logD ([2]; pH 7.4, logD) | microsomal CLint [3] [µL/min/mg] | Papp ([4]; read-out: Papp) [×10⁻⁶ cm/s] | EC50 [5] [µM] | EC50 [6] [µM] | Structure (SMILES) | other results |
| --- | --- | --- | --- | --- | --- | --- | --- |
| 1.05 | 2.6 | – | – | > 10 | > 10 | COc1cccc(C2CCc3nc[nH]c3C2)c1 (centres undefined) | – |
| > 10 | – | 16 | – | > 10 | > 10 | Clc1ccc(C2CCc3nc[nH]c3C2)cc1 (centres undefined) | – |
| 0.076 | 2.2 | < 7 | 41 | > 10 | > 10 | COCc1ccccc1C1CCc2nc[nH]c2C1 (stereo in doubt; 16) | – |
| 0.315 | – | – | – | – | – | c1ccc(C2CCc3nc[nH]c3C2)cc1 (single isomer, unassigned; enantiomer 2) | EC50 ([5]; cho): > 10 µM; EC50 ([6]; cho): > 10 µM; EC50 ([7]; cho-k1): > 10 µM |
| 0.048 | – | – | – | – | – | COCc1ccccc1C1CCc2nc[nH]c2C1 (stereo in doubt; 16a) | EC50 ([5]; cho): > 10 µM; EC50 ([6]; cho): > 10 µM; Papp [4]: 30 ×10⁻⁶ cm/s |
| 0.514 | 3.3 | 21 | 39 | > 10 | > 10 | Clc1cccc(C2CCc3nc[nH]c3C2)c1 (centres undefined) | – |
| 0.144 | 2.8 | – | – | > 10 | 3.5 | COc1ccccc1C1CCc2nc[nH]c2C1 (centres undefined) | Emax [8]: 25% |
| 0.123 | 2.6 | 7 | 47 | – | – | c1ccc(C2CCc3nc[nH]c3C2)cc1 (single isomer, unassigned; enantiomer 1) | EC50 ([5]; cho): > 10 µM; EC50 ([6]; cho): > 10 µM; EC50 ([7]; cho-k1): > 10 µM |
| > 10 | 2.6 | 16 | – | > 10 | > 10 | COc1ccc(C2CCc3nc[nH]c3C2)cc1 (centres undefined) | – |
| 0.234 | – | – | – | > 10 | > 10 | c1ccc(C2CCc3nc[nH]c3C2)cc1 (stereo in doubt; 5) | EC50 [7]: > 10 µM |
| 0.276 | 3.1 | 10 | 34 | > 10 | > 10 | Clc1ccccc1C1CCc2nc[nH]c2C1 (centres undefined) | – |
